Values quoted from earlier work as cited in publication PMC3065210 (Inorganic Chemistry, 2011).
Where two headings read alike, the source gives them in different places.

Columns and labels:
[1] = not given; remark: listed apart in the source

For O=C([O-])CN1CCCN2CCN(CCCN(CC(=O)[O-])CC2)CC1.[Cu+2] [Cu-CB-TE2A], which acid inertness half-life (5 M HCl, 90 °C) is on record?
The acid inertness half-life was “more than 6 d”.

For C1CNCCN2CCNCCN(C1)CC2.[Cu+2] [Cu-CB-homocyclen], which acid inertness half-life (1 M HCl, 30 °C) is on record?
The acid inertness half-life was 4.8 h.

What does the source list for O=C([O-])CN1CCN2CCN(CC1)CCN(CC(=O)[O-])CC2.[64Cu+2] [^64Cu-CB-DO2A]?
accumulation in the liver ([1]; 24 h p.i., previously published data (text says mice)): 0.024 ± 0.002 %ID/g; activity in blood ([1]; rats, 24 h, previously published data): 0.011 ± 0.004 %ID/g; tissue associated radioactivity in kidneys ([1]; rats, 24 h p.i., previously published data): 0.064 ± 0.007 %ID/g; liver clearance (percent reduction) ([1]; rats, at 22 or 24 h PI, from published data): 69.5%; kidney clearance ([1]; rats, out to 22 or 24 h PI, from published data): 95.6%
